Assay results as given in patent publication US20220202884A1 (SENECA THERAPEUTICS, INC., priority 2019, published 2022).
Where a name gives a salt, the structure may show the parent alone.

What was measured:
[1] = system: U2OS cells (osteosarcoma); assay: SVV mediated killing of drug-pretreated U2OS cells; format: cell-based; details: U2OS cells pretreated for 24 hours with compound, FIG. 3
Procedure: U2OS cells (osteosarcoma) were pretreated for 24 hours in pharmaceutical compounds to disrupt innate antiviral responses to allow increased viral mediated killing.

[2] = system: HCT-116 cells (Colorectal cancer cells); assay: SVV mediated killing of drug-pretreated HCT-116 cells; format: cell-based, human; details: HCT-116 cells pretreated for 24 hours with compound, FIG. 4
Procedure: HCT-116 cells (Colorectal cancer cells) were pretreated for 24 hours in pharmaceutical compounds to disrupt innate antiviral responses to allow increased viral mediated killing.

[3] = system: HTB-126 cells (triple negative breast cancer, TNBC); assay: Seneca Valley Virus (SVV) mediated killing of drug-pretreated HTB-126 cells; format: cell-based
Text: Standard deviations of replicates are presented as error bars (VP/cell with 1 PFU or TCID50 unit per 100 VPs).
(§1) In certain instances, infection with Seneca Valley Virus can be toxic to triple negative breast cancer cell lines. In these cases, it is necessary to reduce innate antiviral responses through the use of certain approved pharmaceutical compounds (see FIG. 1, FIG. 2 and FIG. 5).

[4] = system: triple negative breast cancer cells (BT-549); assay: SVV infection, replication and killing of drug-treated BT-549 cells; format: cell-based; details: FIG. 2
Text: as §1

| SMILES | Seneca Valley Virus mediated cell killing [1] | Seneca Valley Virus mediated cell killing ([1]; listed as tofacitinib) | Seneca Valley Virus mediated cell killing [2] | Seneca Valley Virus mediated cell killing ([2]; listed as tofacitnib) | enhancement of SVV replication and cell death ([3]; FIG. 5, TNBC cell lines, 1PFU/cell of SVV and 0.8 uM of Tofacintinib) | susceptibility to virus mediated killing by SVV ([3]; HTB-126 cells, FIG. 1 (pretreated 24 hours in 12.5 micromolar tofacitinib, then 50 VP of SVV/cell) and FIG. 5) | susceptibility to virus mediated killing by SVV [4] | Seneca Valley Virus mediated cell killing ([2]; listed as vorinostat) | Seneca Valley Virus mediated cell killing ([2]; listed as dimethyl fumarate) |
| --- | --- | --- | --- | --- | --- | --- | --- | --- | --- |
| C[C@@H]1CCN(C(=O)CC#N)C[C@@H]1N(C)c1ncnc2[nH]ccc12 [Tofacitinib] | augmented SVV mediated cell killing | increased Seneca Valley Virus mediated cell killing | mainly caused by MAC inhibitors (Panobinostat or Vorinostat) instead of the JAK inhibitors | smaller effect | substantial enhancement of SVV replication in TNBC cell lines and cell death | modified and favored the susceptibility to virus mediated killing by SVV | modified and favored the susceptibility to virus mediated killing by SVV |  |  |
| O=C(CCCCCCC(=O)Nc1ccccc1)NO [Vorinostat] |  |  | increase in cell killing was mainly caused by MAC inhibitors |  |  |  | modified and favored the susceptibility to virus mediated killing by SVV | increased Seneca Valley Virus mediated cell killing |  |
| COC(=O)/C=C/C(=O)OC [Dimethyl fumarate, dimethyl fumarate] | increased Seneca Valley Virus mediated cell killing |  | mainly caused by MAC inhibitors (Panobinostat or Vorinostat) instead of the JAK inhibitors |  |  |  |  |  | smaller effect |
